Results as given in US11395821B2, “Treatment of EGFR-driven cancer with fewer side effects” (G1 Therapeutics, Inc., priority 2017, dated 2022).
“Also recorded” adds a separate entry of the source.

Columns and labels:
[1] = system: H1975 (EGFR^L858R/T790M NSCLC Model); assay: Example 2: Compound IV + erlotinib in H1975 tumor bearing mice; type: in vivo; details: Compound IV 50 or 100 mg/kg in combination with erlotinib 70 mg/kg, daily, 18 days
Procedure: (§1) The x-axis is days of treatment measured in time and the y-axis is tumor volume measured in mm^3.
(§2) Compound IV in combination with the EGFR-TKI erlotinib was tested in an EGFR^L858R/T790M NSCLC model. The combination of Compound IV in dosages of 50 mg/kg and 100 mg/kg+erlotinib was tested and compared to treatment regimens consisting of only Compound IV (in 50 mg/kg dose or a 100 mg/kg) or erlotinib (70 mg/kg). H1975 (EGFR^L858R/T790M NSCLC Model) tumor bearing mice were treated daily. Tumors were measured twice a week until vehicle treated mice tumors reached about 1000 mm^3 (18 days). Data is plotted to compare tumor growth in each cohort during the 18 days of treatment.

[2] = system: EGFR^ex19del/T790M PDX NSCLC tumor fragments (TM00219, Jackson Labs); assay: Example 4: Compound IV +/- osimertinib in EGFR ex19del/T790M PDX model; type: in vivo, NSG mice; details: once daily oral gavage 28 days
From the text: The x-axis is days from initiation measured in time and the y-axis is mean tumor volume measured in mm^3.
The x-axis is days from initiation measured in time and the y-axis is median tumor volume measured in mm^3.
After 28 days tumors continued to be measured until they reached tumor burden (>2000 mm^3).

[3] = G1T38-02: G1T38-related TEAEs by CTCAE grade; type: in vivo, Humans; details: for G1T38-related TEAE: Alopecia / G1T38-related TEAE: Anaemia / G1T38-related TEAE: Blood bilirubin increased / G1T38-related TEAE: Blood creatinine increased / G1T38-related TEAE: Blood lactate dehydrogenase increased / G1T38-related TEAE: Blood urea increased / G1T38-related TEAE: Diarrhoea / G1T38-related TEAE: Dry eye / G1T38-related TEAE: Dry mouth / G1T38-related TEAE: Haematuria / G1T38-related TEAE: Lacrimation increased / G1T38-related TEAE: Leukopenia / G1T38-related TEAE: Monocyte count decreased / G1T38-related TEAE: Nausea / G1T38-related TEAE: Neutropenia / G1T38-related TEAE: Neutrophil count deceased / G1T38-related TEAE: Platelet count decreased / G1T38-related TEAE: Stomatitis / G1T38-related TEAE: Thombocytopenia / G1T38-related TEAE: Vomiting / G1T38-related TEAE: White blood cell count decreased / Number (%) of patients with any G1T38-related TEAEs: N = 18
[4] = Study G1T38-01: safety and tolerability in healthy subjects; type: in vivo, Humans
From the text: Effects on hematologic parameters were not observed due to the limited duration of dosing.

[5] = system: H1975 (EGFR^L858R/T790M NSCLC Model); assay: Example 1: Compound IV + afatinib in H1975 tumor bearing mice; type: in vivo; details: Compound IV 50 or 100 mg/kg in combination with afatinib 20 mg/kg, daily, 18 days
Procedure: as §1
as §2, with “afatinib” for “erlotinib”, “mg/kg+afatinib” for “mg/kg+erlotinib”, “afatinib (20” for “erlotinib (70”

CC(C)N1CCN(c2ccc(Nc3ncc4cc5n(c4n3)C3(CCCCC3)CNC5=O)nc2)CC1 [Compound IV]
erlotinib resistance (tumor volume) [1]: reversed erlotinib resistance; also recorded: reverses EGFR-TKI acquired resistance
tumor growth vs vehicle, combination ([2]; Compound IV 100 mg/kg + osimertinib 2.5 mg/kg): tumor stasis during dosing that was sustained post treatment; also recorded: delays tumor growth
tumor growth vs vehicle, single agent ([2]; Compound IV 100 mg/kg or osimertinib 2.5 mg/kg alone): modest tumor growth inhibition
G1T38-related TEAE: Alopecia ([3]; Grade 1-2): 1 (5.6) n (%)
G1T38-related TEAE: Anaemia ([3]; Grade 1-2): 6 (33.3) n (%)
G1T38-related TEAE: Blood bilirubin increased ([3]; Grade 1-2): 1 (5.6) n (%)
G1T38-related TEAE: Blood creatinine increased ([3]; Grade 1-2): 2 (11.1) n (%)
G1T38-related TEAE: Blood lactate dehydrogenase increased ([3]; Grade 1-2): 1 (5.6) n (%)
G1T38-related TEAE: Blood urea increased ([3]; Grade 1-2): 1 (5.6) n (%)
G1T38-related TEAE: Diarrhoea ([3]; Grade 1-2): 5 (27.8) n (%)
G1T38-related TEAE: Dry eye ([3]; Grade 1-2): 1 (5.6) n (%)
G1T38-related TEAE: Dry mouth ([3]; Grade 1-2): 1 (5.6) n (%)
G1T38-related TEAE: Haematuria ([3]; Grade 1-2): 3 (16.7) n (%)
G1T38-related TEAE: Lacrimation increased ([3]; Grade 1-2): 1 (5.6) n (%)
G1T38-related TEAE: Leukopenia ([3]; Grade 1-2): 1 (5.6) n (%)
G1T38-related TEAE: Monocyte count decreased ([3]; Grade 1-2): 1 (5.6) n (%)
G1T38-related TEAE: Nausea ([3]; Grade 1-2): 5 (27.8) n (%)
G1T38-related TEAE: Neutropenia ([3]; Grade 1-2): 3 (16.7) n (%)
G1T38-related TEAE: Neutrophil count deceased ([3]; Grade 1-2): 7 (38.9) n (%)
G1T38-related TEAE: Platelet count decreased ([3]; Grade 1-2): 2 (11.1) n (%)
G1T38-related TEAE: Stomatitis ([3]; Grade 1-2): 1 (5.6) n (%)
G1T38-related TEAE: Thombocytopenia ([3]; Grade 1-2): 1 (5.6) n (%)
G1T38-related TEAE: Vomiting ([3]; Grade 1-2): 3 (16.7) n (%)
G1T38-related TEAE: White blood cell count decreased ([3]; Grade 1-2): 7 (38.9) n (%)
Number (%) of patients with any G1T38-related TEAEs ([3]; Grade 1-2): 11 (61.1) n (%)
G1T38-related TEAE: Alopecia ([3]; Grade 3): 0 n (%)
G1T38-related TEAE: Anaemia ([3]; Grade 3): 0 n (%)
G1T38-related TEAE: Blood bilirubin increased ([3]; Grade 3): 0 n (%)
G1T38-related TEAE: Blood creatinine increased ([3]; Grade 3): 0 n (%)
G1T38-related TEAE: Blood lactate dehydrogenase increased ([3]; Grade 3): 0 n (%)
G1T38-related TEAE: Blood urea increased ([3]; Grade 3): 0 n (%)
G1T38-related TEAE: Diarrhoea ([3]; Grade 3): 0 n (%)
G1T38-related TEAE: Dry eye ([3]; Grade 3): 0 n (%)
G1T38-related TEAE: Dry mouth ([3]; Grade 3): 0 n (%)
G1T38-related TEAE: Haematuria ([3]; Grade 3): 0 n (%)
G1T38-related TEAE: Lacrimation increased ([3]; Grade 3): 0 n (%)
G1T38-related TEAE: Leukopenia ([3]; Grade 3): 0 n (%)
G1T38-related TEAE: Monocyte count decreased ([3]; Grade 3): 0 n (%)
G1T38-related TEAE: Nausea ([3]; Grade 3): 0 n (%)
G1T38-related TEAE: Neutropenia ([3]; Grade 3): 1 (5.6) n (%)
G1T38-related TEAE: Neutrophil count deceased ([3]; Grade 3): 2 (11.1) n (%)
G1T38-related TEAE: Platelet count decreased ([3]; Grade 3): 0 n (%)
G1T38-related TEAE: Stomatitis ([3]; Grade 3): 0 n (%)
G1T38-related TEAE: Thombocytopenia ([3]; Grade 3): 0 n (%)
G1T38-related TEAE: Vomiting ([3]; Grade 3): 0 n (%)
G1T38-related TEAE: White blood cell count decreased ([3]; Grade 3): 0 n (%)
Number (%) of patients with any G1T38-related TEAEs ([3]; Grade 3): 3 (16.7) n (%)
G1T38-related TEAE: Alopecia ([3]; Grade 4): 0 n (%)
G1T38-related TEAE: Anaemia ([3]; Grade 4): 0 n (%)
G1T38-related TEAE: Blood bilirubin increased ([3]; Grade 4): 0 n (%)
G1T38-related TEAE: Blood creatinine increased ([3]; Grade 4): 0 n (%)
G1T38-related TEAE: Blood lactate dehydrogenase increased ([3]; Grade 4): 0 n (%)
G1T38-related TEAE: Blood urea increased ([3]; Grade 4): 0 n (%)
G1T38-related TEAE: Diarrhoea ([3]; Grade 4): 0 n (%)
G1T38-related TEAE: Dry eye ([3]; Grade 4): 0 n (%)
G1T38-related TEAE: Dry mouth ([3]; Grade 4): 0 n (%)
G1T38-related TEAE: Haematuria ([3]; Grade 4): 0 n (%)
G1T38-related TEAE: Lacrimation increased ([3]; Grade 4): 0 n (%)
G1T38-related TEAE: Leukopenia ([3]; Grade 4): 0 n (%)
G1T38-related TEAE: Monocyte count decreased ([3]; Grade 4): 0 n (%)
G1T38-related TEAE: Nausea ([3]; Grade 4): 0 n (%)
G1T38-related TEAE: Neutropenia ([3]; Grade 4): 1 (5.0) n (%)
G1T38-related TEAE: Neutrophil count deceased ([3]; Grade 4): 0 n (%)
G1T38-related TEAE: Platelet count decreased ([3]; Grade 4): 0 n (%)
G1T38-related TEAE: Stomatitis ([3]; Grade 4): 0 n (%)
G1T38-related TEAE: Thombocytopenia ([3]; Grade 4): 0 n (%)
G1T38-related TEAE: Vomiting ([3]; Grade 4): 0 n (%)
G1T38-related TEAE: White blood cell count decreased ([3]; Grade 4): 0 n (%)
Number (%) of patients with any G1T38-related TEAEs ([3]; Grade 4): 1 (5.6) n (%)
G1T38-related TEAE: Alopecia ([3]; Grade 5): 0 n (%)
G1T38-related TEAE: Anaemia ([3]; Grade 5): 0 n (%)
G1T38-related TEAE: Blood bilirubin increased ([3]; Grade 5): 0 n (%)
G1T38-related TEAE: Blood creatinine increased ([3]; Grade 5): 0 n (%)
G1T38-related TEAE: Blood lactate dehydrogenase increased ([3]; Grade 5): 0 n (%)
G1T38-related TEAE: Blood urea increased ([3]; Grade 5): 0 n (%)
G1T38-related TEAE: Diarrhoea ([3]; Grade 5): 0 n (%)
G1T38-related TEAE: Dry eye ([3]; Grade 5): 0 n (%)
G1T38-related TEAE: Dry mouth ([3]; Grade 5): 0 n (%)
G1T38-related TEAE: Haematuria ([3]; Grade 5): 0 n (%)
G1T38-related TEAE: Lacrimation increased ([3]; Grade 5): 0 n (%)
G1T38-related TEAE: Leukopenia ([3]; Grade 5): 0 n (%)
G1T38-related TEAE: Monocyte count decreased ([3]; Grade 5): 0 n (%)
G1T38-related TEAE: Nausea ([3]; Grade 5): 0 n (%)
G1T38-related TEAE: Neutropenia ([3]; Grade 5): 0 n (%)
G1T38-related TEAE: Neutrophil count deceased ([3]; Grade 5): 0 n (%)
G1T38-related TEAE: Platelet count decreased ([3]; Grade 5): 0 n (%)
G1T38-related TEAE: Stomatitis ([3]; Grade 5): 0 n (%)
G1T38-related TEAE: Thombocytopenia ([3]; Grade 5): 0 n (%)
G1T38-related TEAE: Vomiting ([3]; Grade 5): 0 n (%)
G1T38-related TEAE: White blood cell count decreased ([3]; Grade 5): 0 n (%)
Number (%) of patients with any G1T38-related TEAEs ([3]; Grade 5): 0 n (%)
G1T38-related TEAE: Alopecia ([3]; Overall): 1 (5.6) n (%)
G1T38-related TEAE: Anaemia ([3]; Overall): 6 (33.3) n (%)
G1T38-related TEAE: Blood bilirubin increased ([3]; Overall): 1 (5.6) n (%)
G1T38-related TEAE: Blood creatinine increased ([3]; Overall): 2 (11.1) n (%)
G1T38-related TEAE: Blood lactate dehydrogenase increased ([3]; Overall): 1 (5.6) n (%)
G1T38-related TEAE: Blood urea increased ([3]; Overall): 1 (5.6) n (%)
G1T38-related TEAE: Diarrhoea ([3]; Overall): 5 (27.8) n (%)
G1T38-related TEAE: Dry eye ([3]; Overall): 1 (5.6) n (%)
G1T38-related TEAE: Dry mouth ([3]; Overall): 1 (5.6) n (%)
G1T38-related TEAE: Haematuria ([3]; Overall): 3 (16.7) n (%)
G1T38-related TEAE: Lacrimation increased ([3]; Overall): 1 (5.6) n (%)
G1T38-related TEAE: Leukopenia ([3]; Overall): 1 (5.6) n (%)
G1T38-related TEAE: Monocyte count decreased ([3]; Overall): 1 (5.6) n (%)
G1T38-related TEAE: Nausea ([3]; Overall): 5 (27.8) n (%)
G1T38-related TEAE: Neutropenia ([3]; Overall): 5 (27.8) n (%)
G1T38-related TEAE: Neutrophil count deceased ([3]; Overall): 9 (50.0) n (%)
G1T38-related TEAE: Platelet count decreased ([3]; Overall): 2 (11.1) n (%)
G1T38-related TEAE: Stomatitis ([3]; Overall): 1 (5.6) n (%)
G1T38-related TEAE: Thombocytopenia ([3]; Overall): 1 (5.6) n (%)
G1T38-related TEAE: Vomiting ([3]; Overall): 3 (16.7) n (%)
G1T38-related TEAE: White blood cell count decreased ([3]; Overall): 7 (38.9) n (%)
Number (%) of patients with any G1T38-related TEAEs ([3]; Overall): 15 (83.3) n (%)
more severe EGFR-TKI-related AEs ([3]; nonclinical and clinical data to date (see Example 6)): none of the more severe EGFR-TKI-related AEs have been observed
effect of fed conditions on gastrointestinal tolerability ([4]; dosing under fed conditions): appeared to improve gastrointestinal tolerability
effects on hematologic parameters ([4]; limited duration of dosing): not observed
tolerability ([4]; single or twice daily oral doses, 3 to 600 mg/day, healthy male and female subjects): well to moderately tolerated
most common moderate intensity TEAEs ([4]; subjects with moderate tolerability): gastrointestinal AEs were the most common moderate intensity treatment-emergent AEs
afatinib efficacy and time to resistance (tumor volume) [5]: increased the afatinib efficacy and extended the time to resistance; also recorded: increases EGFR-TKI efficacy and extends time to resistance
decrease of tumor volume, combination vs Compound IV alone and afatinib alone [5]: more effective at decreasing tumor volume
